The assay has as its target CDK2/Cyclin E1 (Homo sapiens (Human), UniProt P24941). As to the kind of experiment: CDK2/Cyclin E1 HTRF enzyme activity assay (Example A). The conditions noted are these: 1 mM ATP. Type of assay: biochemical. As for the experimental part:
Assays were conducted in white 384-well polystyrene plates in a final reaction volume of 8 μL. […] HTRF signals were read after 1 hour at room temperature on a PHERAstar FS plate reader (BMG Labtech). Data was analyzed with IDBS XLFit and GraphPad Prism 5.0 software using a three or four parameter dose response curve to determine IC50 for each compound.
In general terms: TR-FRET usually uses a lanthanide donor and a delayed reading to cut background.

As usually defined, the pIC50 is −log10 of the IC50, conventionally taken in molar units. A high value points to a low IC50.

pIC50: −log10 of the molar value.

`CS(=O)(=O)N1CCC(Nc2ncc(C(F)(F)F)c(-c3cn(-c4ccc(CNC5CC5)cc4C(F)(F)F)cn3)n2)CC1` [Example 256]: the negative logarithm of the IC50 (pIC50) is ≥ 7.30.

Consider `CCN(C)Cc1ccc(-n2cnc(-c3nc(NC4CCN(S(C)(=O)=O)CC4)ncc3C(F)(F)F)c2)c(C(F)(F)F)c1` [Example 257, 4-(1-(4-((Ethyl(methyl)amino)methyl)-2-(trifluoromethyl)phenyl)-1H-imidazol-4-yl)-N-(1-(methylsulfonyl)piperidin-4-yl)-5-(trifluoromethyl)pyrimidin-2-amine], for which the negative logarithm of the IC50 (pIC50) is ≥ 7.30.

With `CCN(CC)Cc1ccc(-n2cnc(-c3nc(NC4CCN(S(C)(=O)=O)CC4)ncc3C(F)(F)F)c2)c(C(F)(F)F)c1` [Example 258, 4-(1-(4-((Diethylamino)methyl)-2-(trifluoromethyl)phenyl)-1H-imidazol-4-yl)-N-(1-(methylsulfonyl)piperidin-4-yl)-5-(trifluoromethyl)pyrimidin-2-amine], the negative-log IC50 (pIC50) is ≥ 7.30.

With `CS(=O)(=O)N1CCC(Nc2ncc(C(F)(F)F)c(-c3cn(-c4ccc(CN5CC(O)C5)cc4C(F)(F)F)cn3)n2)CC1` [Example 259, 1-(4-(4-(2-((1-(Methylsulfonyl)piperidin-4-yl)amino)-5-(trifluoromethyl)pyrimidin-4-yl)-1H-imidazol-1-yl)-3-(trifluoromethyl)benzyl) azetidin-3-ol], the pIC50 is ≥ 7.30.

With `CS(=O)(=O)N1CCC(Nc2ncc(C(F)(F)F)c(-c3cn(-c4ccc(CN5CC[C@H](O)C5)cc4C(F)(F)F)cn3)n2)CC1` [Example 260, (S)-1-(4-(4-(2-((1-(Methylsulfonyl)piperidin-4-yl)amino)-5-(trifluoromethyl)pyrimidin-4-yl)-1H-imidazol-1-yl)-(trifluoromethyl)benzyl) pyrrolidin-3-ol], the pIC50 was ≥ 7.30.

As to `C[C@]1(O)CCN(Cc2ccc(-n3cnc(-c4nc(NC5CCN(S(C)(=O)=O)CC5)ncc4C(F)(F)F)c3)c(C(F)(F)F)c2)C1` [Example 261, (S)-3-Methyl-1-(4-(4-(2-((1-(methylsulfonyl)piperidin-4-yl)amino)-5-(trifluoromethyl)pyrimidin-4-yl)-1H-imidazol-1-yl)-3-(trifluoromethyl)benzyl) pyrrolidin-3-ol], the pIC50 was ≥ 7.30.

On to `CC1(O)CCN(Cc2ccc(-n3cnc(-c4nc(NC5CCN(S(C)(=O)=O)CC5)ncc4C(F)(F)F)c3)c(C(F)(F)F)c2)CC1` [Example 262, 4-Methyl-1-(4-(4-(2-((1-(methylsulfonyl)piperidin-4-yl)amino)-5-(trifluoromethyl)pyrimidin-4-yl)-1H-imidazol-1-yl)-3-(trifluoromethyl)benzyl) piperidin-4-ol], for which the pIC50 is ≥ 7.30.

In the case of `Cc1nc(CN(C)C)ccc1-n1cnc(-c2nc(NC3CCN(S(C)(=O)=O)CC3)ncc2C(F)(F)F)c1` [Example 263, 4-(1-(6-((Dimethylamino)methyl)-2-methylpyridin-3-yl)-1H-imidazol-4-yl)-N-(1-(methylsulfonyl)piperidin-4-yl)-5-(trifluoromethyl)pyrimidin-2-amine], the pIC50 is ≥ 7.30.

In the case of `Cc1nc(CN2CC(C)C2)ccc1-n1cnc(-c2nc(NC3CCN(S(C)(=O)=O)CC3)ncc2C(F)(F)F)c1` [Example 264, 4-(1-(2-Methyl-6-((3-methylazetidin-1-yl)methyl)pyridin-3-yl)-1H-imidazol-4-yl)-N-(1-(methylsulfonyl)piperidin-4-yl)-5-(trifluoromethyl)pyrimidin-2-amine], the pIC50 is ≥ 7.30.

Consider `Cc1nc(CN2CC(C)(C)C2)ccc1-n1cnc(-c2nc(NC3CCN(S(C)(=O)=O)CC3)ncc2C(F)(F)F)c1` [Example 265, 4-(1-(6-((3,3-Dimethylazetidin-1-yl)methyl)-2-methylpyridin-3-yl)-1H-imidazol-4-yl)-N-(1-(methylsulfonyl)piperidin-4-yl)-5-(trifluoromethyl)pyrimidin-2-amine], for which the pIC50 was ≥ 7.30.

`CNCc1ccc(-n2cnc(-c3nc(NC4CCN(S(C)(=O)=O)CC4)ncc3C(F)(F)F)c2)c(F)c1` [Example 266, 4-(1-(2-Fluoro-4-((methylamino)methyl)phenyl)-1H-imidazol-4-yl)-N-(1-(methylsulfonyl)piperidin-4-yl)-5-(trifluoromethyl)pyrimidin-2-amine]: the pIC50 was ≥ 7.30.

Consider `CN(C)Cc1ccc(-n2cnc(-c3nc(NC4CCN(S(C)(=O)=O)CC4)ncc3C(F)(F)F)c2)c(F)c1` [Example 267, 4-(1-(4-((Dimethylamino)methyl)-2-fluorophenyl)-1H-imidazol-4-yl)-N-(1-(methylsulfonyl)piperidin-4-yl)-5-(trifluoromethyl)pyrimidin-2-amine], for which the pIC50 is ≥ 7.30.

As for `CNCc1ccc(-n2cnc(-c3nc(NC4CCN(S(C)(=O)=O)CC4)ncc3C(F)(F)F)c2)c(Cl)c1F` [Example 268, 4-(1-(2-Chloro-3-fluoro-4-((methylamino)methyl)phenyl)-1H-imidazol-4-yl)-N-(1-(methylsulfonyl)piperidin-4-yl)-5-(trifluoromethyl)pyrimidin-2-amine], the pIC50 is ≥ 7.30.

For the compound `CS(=O)(=O)N1CCC(Nc2ncc(C(F)(F)F)c(-c3cn(-c4ccc(CN5CCC5)c(F)c4Cl)cn3)n2)CC1` [Example 269, 4-(1-(4-(Azetidin-1-ylmethyl)-2-chloro-3-fluorophenyl)-1H-imidazol-4-yl)-N-(1-(methylsulfonyl)piperidin-4-yl)-5-(trifluoromethyl)pyrimidin-2-amine], the negative-log IC50 (pIC50) is ≥ 7.30.

For `CC1CN(Cc2ccc(-n3cnc(-c4nc(NC5CCN(S(C)(=O)=O)CC5)ncc4C(F)(F)F)c3)c(Cl)c2F)C1` [Example 270, 4-(1-(2-Chloro-3-fluoro-4-((3-methylazetidin-1-yl)methyl)phenyl)-1H-imidazol-4-yl)-N-(1-(methylsulfonyl)piperidin-4-yl)-5-(trifluoromethyl)pyrimidin-2-amine], the pIC50 was ≥ 7.30.

Take `Cc1cc(CN(C)C)ccc1-n1cnc(-c2nc(NC3CCN(S(C)(=O)=O)CC3)ncc2C(F)(F)F)c1` [Example 271, 4-(1-(4-((Dimethylamino)methyl)-2-methylphenyl)-1H-imidazol-4-yl)-N-(1-(methylsulfonyl)piperidin-4-yl)-5-(trifluoromethyl)pyrimidin-2-amine]: the pIC50 is ≥ 7.30.

Consider `CNCc1ccc(-n2cnc(-c3nc(NC4CCN(S(C)(=O)=O)CC4)ncc3C(F)(F)F)c2)c(C)c1` [Example 272, 4-(1-(2-Methyl-4-((methylamino)methyl)phenyl)-1H-imidazol-4-yl)-N-(1-(methylsulfonyl)piperidin-4-yl)-5-(trifluoromethyl)pyrimidin-2-amine], for which the negative-log IC50 (pIC50) is ≥ 7.30.

With `CCNC(C)c1ccc(-n2cnc(-c3nc(NC4CCN(S(C)(=O)=O)CC4)ncc3C(F)(F)F)c2)c(Cl)c1` (stereo not shown) [Example 273, 4-(1-(2-Chloro-4-(1-(ethylamino)ethyl)phenyl)-1H-imidazol-4-yl)-N-(1-(methylsulfonyl)piperidin-4-yl)-5-(trifluoromethyl)pyrimidin-2-amine], the pIC50 was ≥ 7.30.

Turning to `CC(c1ccc(-n2cnc(-c3nc(NC4CCN(S(C)(=O)=O)CC4)ncc3C(F)(F)F)c2)c(Cl)c1)N1CCC1` (stereo not shown) [Example 274, 4-(1-(4-(1-(Azetidin-1-yl)ethyl)-2-chlorophenyl)-1H-imidazol-4-yl)-N-(1-(methylsulfonyl)piperidin-4-yl)-5-(trifluoromethyl)pyrimidin-2-amine], the pIC50 was ≥ 7.30.

On to `Cc1nc(-c2nc(NC3CCN(S(C)(=O)=O)CC3)ncc2C(F)(F)F)cn1-c1ccc(CN(C)C)cc1F` [Example 279, 4-(1-(4-((Dimethylamino)methyl)-2-fluorophenyl)-2-methyl-1H-imidazol-4-yl)-N-(1-(methylsulfonyl)piperidin-4-yl)-5-(trifluoromethyl)pyrimidin-2-amine], for which the pIC50 was ≥ 7.30.

In the case of `[2H]C([2H])([2H])N(Cc1ccc(-n2cc(-c3nc(NC4CCN(S(C)(=O)=O)CC4)ncc3C(F)(F)F)nc2C)c(F)c1)C([2H])([2H])[2H]` [Example 280, 4-(1-(4-((Bis(methyl-d)amino)methyl)-2-fluorophenyl)-2-methyl-1H-imidazol-4-yl)-N-(1-(methylsulfonyl)piperidin-4-yl)-5-(trifluoromethyl)pyrimidin-2-amine], the pIC50 was ≥ 7.30.

On to `Cc1nc(-c2nc(NC3CCN(S(C)(=O)=O)CC3)ncc2C(F)(F)F)cn1-c1ccc(CN2CCC2)cc1F` [Example 281, 4-(1-(4-(Azetidin-1-ylmethyl)-2-fluorophenyl)-2-methyl-1H-imidazol-4-yl)-N-(1-(methylsulfonyl)piperidin-4-yl)-5-(trifluoromethyl)pyrimidin-2-amine], for which the pIC50 is ≥ 7.30.

As to `Cc1nc(-c2nc(NC3CCN(S(C)(=O)=O)CC3)ncc2C(F)(F)F)cn1-c1ccc(CN2CC(C(C)(C)O)C2)cc1F` [Example 282, 2-(1-(3-Fluoro-4-(2-methyl-4-(2-((1-(methylsulfonyl)piperidin-4-yl)amino)-5-(trifluoromethyl)pyrimidin-4-yl)-1H-imidazol-1-yl)benzyl)azetidin-3-yl)propan-2-ol], the pIC50 was ≥ 7.30.

With `Cc1nc(-c2nc(NC3CCN(S(C)(=O)=O)CC3)ncc2C(F)(F)F)cn1-c1ccc(CN2CC(C)C2)cc1F` [Example 283, 4-(1-(2-Fluoro-4-((3-methylazetidin-1-yl)methyl)phenyl)-2-methyl-1H-imidazol-4-yl)-N-(1-(methylsulfonyl)piperidin-4-yl)-5-(trifluoromethyl)pyrimidin-2-amine], the pIC50 was ≥ 7.30.

`Cc1nc(-c2nc(NC3CCN(S(C)(=O)=O)CC3)ncc2C(F)(F)F)cn1-c1ccc(CN2CCC2)cc1Cl` [Example 284, 4-(1-(4-(Azetidin-1-ylmethyl)-2-chlorophenyl)-2-methyl-1H-imidazol-4-yl)-N-(1-(methylsulfonyl)piperidin-4-yl)-5-(trifluoromethyl)pyrimidin-2-amine]: the pIC50 is ≥ 7.30.

Source of the values: US11427567B2, “Imidazolyl pyrimidinylamine compounds as CDK2 inhibitors” (Incyte Corporation, priority 2019, dated 2022).
